The term Ki denotes the dissociation constant of the complex between target and ligand, obtained from inhibition or displacement.

For 19 compounds, Ki results are on record in patent US8022099B2, “N-benzyl pyrrolidine derivatives” (Hoffmann-La Roche Inc., priority 2008, dated 2011).

Structures are written as SMILES.

In the assay the target is T1, human NK3 receptor (Homo sapiens, UniProt P29371).
T1 construct: expressed in transfected cells; host or cells: HEK293 cells (transient expression), membrane preparation
T1 sequence (P29371 1-465): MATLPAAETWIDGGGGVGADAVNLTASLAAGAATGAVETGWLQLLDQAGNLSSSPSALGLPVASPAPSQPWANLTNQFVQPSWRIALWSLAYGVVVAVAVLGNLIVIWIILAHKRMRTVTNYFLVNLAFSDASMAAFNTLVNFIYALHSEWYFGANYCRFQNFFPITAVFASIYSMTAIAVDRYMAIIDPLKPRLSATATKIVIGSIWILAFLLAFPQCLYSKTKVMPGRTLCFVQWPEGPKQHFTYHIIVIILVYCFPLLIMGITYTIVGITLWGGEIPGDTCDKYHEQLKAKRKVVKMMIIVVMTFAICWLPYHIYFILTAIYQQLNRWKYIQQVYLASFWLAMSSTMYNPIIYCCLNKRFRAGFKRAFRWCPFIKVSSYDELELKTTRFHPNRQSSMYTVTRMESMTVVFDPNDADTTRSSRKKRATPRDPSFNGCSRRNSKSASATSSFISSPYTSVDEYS
The experiment in a line: [3H]SR142801 competition binding assay. As to conditions: hNK3 receptor binding, [3H]SR142801, membranes from HEK293 cells transiently expressing recombinant human NK3 receptor. As for the experimental part:
[^3H]SR142801 Competition Binding Assay
hNK3 receptor binding experiment were performed using [^3H]SR142801 (Catalog No. TRK1035, specific activity: 74.0 Ci/mmol, Amersham, GE Healthcare UK limited, Buckinghamshire, UK) and membrane isolated from HEK293 cells transiently expressing recombinant human NK3 receptor. After thawing, the membrane homogenates were centrifuged at 48,000×g for 10 min at 4° C., the pellets were resuspended in the 50 mM Tris-HCl, 4 mM MnCl2, 1 μM phosphoramidon, 0.1% BSA binding buffer at pH 7.4 to a final assay concentration of 5 μg protein/well. For inhibition experiments, membranes were incubated with [^3H]SR142801 at a concentration equal to KD value of radioligand and 10 concentrations of the inhibitory compound (0.0003-10 μM) (in a total reaction volume of 500 μl) for 75 min at room temperature (RT). At the end of the incubation, membranes were filtered onto unitfilter (96-well white microplate with bonded GF/C filter preincubated 1 h in 0.3% PEI+0.3% BSA, Packard BioScience, Meriden, Conn.) with a Filtermate 196 harvester (Packard BioScience) and washed 4 times with ice-cold 50 mM Tris-HCl, pH 7.4 buffer. Nonspecific binding was measured in the presence of 10 μM SB222200 for both radioligands. The radioactivity on the filter was counted (5 min) on a Packard Top-count microplate scintillation counter with quenching correction after addition of 45 μl of microscint 40 (Canberra Packard S. A., Zürich, Switzerland) and shaking for 1 h. Inhibition curves were fitted according to the Hill equation: y=100/(1+(x/IC50)^nH), where nH=slope factor using Excel-fit 4 software (Microsoft). IC50 values were derived from the inhibition curve and the affinity constant (Ki) values were calculated using the Cheng-Prussoff equation Ki=IC50/(1+[L]/KD) where [L] is the concentration of radioligand and KD is its dissociation constant at the receptor, derived from the saturation isotherm. All experiments were performed in duplicate and the mean±standard error (SEM) of the individual Ki values was calculated.
Regarding `CN(Cc1ccc(F)c(F)c1)[C@H]1CN(C(=O)N2CCN(S(C)(=O)=O)CC2)C[C@@H]1c1ccc(Cl)c(Cl)c1` (racemic) [Example 36, {(3SR,4RS)-3-(3,4-Dichloro-phenyl)-4-[(3,4-difluoro-benzyl)-methyl-amino]-pyrrolidin-1-yl}-(4-methanesulfonyl-piperazin-1-yl)-methanone], the inhibitory constant (Ki) came to 52.6 nM.

For `CN(Cc1ccc2c(c1)OCC2)[C@H]1CN(C(=O)N2CCN(S(C)(=O)=O)CC2)C[C@@H]1c1ccc(Cl)c(Cl)c1` (racemic) [Example 37, {(3SR,4RS)-3-(3,4-Dichloro-phenyl)-4-[(2,3-dihydro-benzofuran-6-ylmethyl)-methyl-amino]-pyrrolidin-1-yl}-(4-methanesulfonyl-piperazin-1-yl)-methanone], the inhibition constant Ki was 76.2 nM.

Turning to `Cc1cc(CN(C)[C@H]2CN(C(=O)N3CCN(S(C)(=O)=O)CC3)C[C@@H]2c2ccc(Cl)c(Cl)c2)ccc1F` (racemic) [Example 43, {(3SR,4RS)-3-(3,4-Dichloro-phenyl)-4-[(4-fluoro-3-methyl-benzyl)-methyl-amino]-pyrrolidin-1-yl}-(4-methanesulfonyl-piperazin-1-yl)-methanone], the inhibition constant (Ki) came out at 84.9 nM.

With `CN(Cc1ccc2cc[nH]c2c1)[C@H]1CN(C(=O)N2CCN(S(C)(=O)=O)CC2)C[C@@H]1c1ccc(Cl)c(Cl)c1` (racemic) [Example 47, {(3SR,4RS)-3-(3,4-Dichloro-phenyl)-4-[(1H-indol-6-ylmethyl)-methyl-amino]-pyrrolidin-1-yl}-(4-methanesulfonyl-piperazin-1-yl)-methanone], the Ki was determined as 69.1 nM.

On to `CC(=O)N1CCN(C(=O)N2C[C@H](c3ccc(Cl)c(Cl)c3)[C@@H](N(C)Cc3ccc(C(F)(F)F)c(F)c3)C2)CC1` (racemic) [Example 51, 1-(4-{(3SR,4RS)-3-(3,4-Dichloro-phenyl)-4-[(3-fluoro-4-trifluoromethyl-benzyl)-methyl-amino]-pyrrolidine-1-carbonyl}-piperazin-1-yl)-ethanone], for which the inhibitory constant (Ki) turned out to be 17.3 nM.

Consider `CN(Cc1ccc(C(F)(F)F)c(F)c1)[C@H]1CN(C(=O)N2CCOCC2)C[C@@H]1c1ccc(Cl)c(Cl)c1` (racemic) [Example 52, {(3SR,4RS)-3-(3,4-Dichloro-phenyl)-4-[(3-fluoro-4-trifluoromethyl-benzyl)-methyl-amino]-pyrrolidin-1-yl}-morpholin-4-yl-methanone], for which the Ki was 71.3 nM.

As for `CN(Cc1ccc(C#N)c(F)c1)[C@H]1CN(C(=O)N2CCN(S(C)(=O)=O)CC2)C[C@@H]1c1ccc(Cl)c(Cl)c1` (racemic) [Example 56, 4-({[(3RS,4SR)-4-(3,4-Dichloro-phenyl)-1-(4-methanesulfonyl-piperazine-1-carbonyl)-pyrrolidin-3-yl]-methyl-amino}-methyl)-2-fluoro-benzonitrile], the inhibition constant Ki came to 22 nM.

For `CN(Cc1ccc(C(F)(F)F)c(F)c1)[C@H]1CN(C(=O)CCCCN2CCOCC2)C[C@@H]1c1ccc(Cl)c(Cl)c1` (racemic) [Example 62, 1-{(3SR,4RS)-3-(3,4-Dichloro-phenyl)-4-[(3-fluoro-4-trifluoromethyl-benzyl)-methyl-amino]-pyrrolidin-1-yl}-5-morpholin-4-yl-pentan-1-one], the Ki was found to be 11 nM.

Regarding `CN(Cc1ccc(C(F)(F)F)c(F)c1)[C@H]1CN(C(=O)N2CCN(c3ncccn3)CC2)C[C@@H]1c1ccc(Cl)c(Cl)c1` (racemic) [Example 63, {(3SR,4RS)-3-(3,4-Dichloro-phenyl)-4-[(3-fluoro-4-trifluoromethyl-benzyl)-methyl-amino]-pyrrolidin-1-yl}-(4-pyrimidin-2-yl-piperazin-1-yl)-methanone], the inhibition constant Ki was found to be 8.6 nM.

Turning to `COc1ccc(N2CCN(C(=O)N3C[C@H](c4ccc(Cl)c(Cl)c4)[C@@H](N(C)Cc4ccc(C(F)(F)F)c(F)c4)C3)CC2)cc1` (racemic) [Example 64, {(3SR,4RS)-3-(3,4-Dichloro-phenyl)-4-[(3-fluoro-4-trifluoromethyl-benzyl)-methyl-amino]-pyrrolidin-1-yl}-[4-(4-methoxy-phenyl)-piperazin-1-yl]-methanone], the Ki came to 2.8 nM.

Regarding `CN(Cc1ccc(C(F)(F)F)c(F)c1)[C@H]1CN(C(=O)N2CCN(c3ccccn3)CC2)C[C@@H]1c1ccc(Cl)c(Cl)c1` (racemic) [Example 65, {(3SR,4RS)-3-(3,4-Dichloro-phenyl)-4-[(3-fluoro-4-trifluoromethyl-benzyl)-methyl-amino]-pyrrolidin-1-yl}-(4-pyridin-2-yl-piperazin-1-yl)-methanone], the inhibitory constant (Ki) is 4.1 nM.

As for `CN(Cc1ccc(C(F)(F)F)c(F)c1)[C@H]1CN(C(=O)N2CCN(CCCO)CC2)C[C@@H]1c1ccc(Cl)c(Cl)c1` (racemic) [Example 66, {(3SR,4RS)-3-(3,4-Dichloro-phenyl)-4-[(3-fluoro-4-trifluoromethyl-benzyl)-methyl-amino]-pyrrolidin-1-yl}-[4-(3-hydroxy-propyl)-piperazin-1-yl]-methanone], the inhibition constant (Ki) came to 3 nM.

For `CN(Cc1ccc(C(F)(F)F)c(F)c1)[C@H]1CN(C(=O)N2CCN(CCO)CC2)C[C@@H]1c1ccc(Cl)c(Cl)c1` (racemic) [Example 67, {(3SR,4RS)-3-(3,4-Dichloro-phenyl)-4-[(3-fluoro-4-trifluoromethyl-benzyl)-methyl-amino]-pyrrolidin-1-yl}-[4-(2-hydroxy-ethyl)-piperazin-1-yl]-methanone], the inhibition constant (Ki) was determined as 6.2 nM.

Regarding `CN(Cc1ccc(C(F)(F)F)c(F)c1)[C@H]1CN(C(=O)N2CCN(c3ccncc3)CC2)C[C@@H]1c1ccc(Cl)c(Cl)c1` (racemic) [Example 68, {(3SR,4RS)-3-(3,4-Dichloro-phenyl)-4-[(3-fluoro-4-trifluoromethyl-benzyl)-methyl-amino]-pyrrolidin-1-yl}-(4-pyridin-4-yl-piperazin-1-yl)-methanone], the Ki turned out to be 5.9 nM.

In the case of `CN(Cc1ccc(C(F)(F)F)c(F)c1)[C@H]1CN(C(=O)N2CCN(c3cnccn3)CC2)C[C@@H]1c1ccc(Cl)c(Cl)c1` (racemic) [Example 69, {(3SR,4RS)-3-(3,4-Dichloro-phenyl)-4-[(3-fluoro-4-trifluoromethyl-benzyl)-methyl-amino]-pyrrolidin-1-yl}-(2,3,5,6-tetrahydro-[1,2′]bipyrazinyl-4-yl)-methanone], the inhibition constant (Ki) was 4.7 nM.

As for `CN(Cc1ccc(C(F)(F)F)c(F)c1)[C@H]1CN(C(=O)N2CCN(c3ccccc3C#N)CC2)C[C@@H]1c1ccc(Cl)c(Cl)c1` (racemic) [Example 70, 2-(4-{(3SR,4RS)-3-(3,4-Dichloro-phenyl)-4-[(3-fluoro-4-trifluoromethyl-benzyl)-methyl-amino]-pyrrolidine-1-carbonyl}-piperazin-1-yl)-benzonitrile], the inhibition constant (Ki) worked out at 10.5 nM.

In the case of `CN(Cc1ccc(C(F)(F)F)c(F)c1)[C@H]1CN(C(=O)N2CCN(c3ccc(C#N)cc3)CC2)C[C@@H]1c1ccc(Cl)c(Cl)c1` (racemic) [Example 72, 4-(4-{(3SR,4RS)-3-(3,4-Dichloro-phenyl)-4-[(3-fluoro-4-trifluoromethyl-benzyl)-methyl-amino]-pyrrolidine-1-carbonyl}-piperazin-1-yl)-benzonitrile], the Ki stood at 2.7 nM.

`CN(Cc1ccc(C(F)(F)F)c(F)c1)[C@H]1CN(C(=O)N2CCN(c3ccc(C#N)cn3)CC2)C[C@@H]1c1ccc(Cl)c(Cl)c1` (racemic) [Example 73, 6-(4-{(3SR,4RS)-3-(3,4-Dichloro-phenyl)-4-[(3-fluoro-4-trifluoromethyl-benzyl)-methyl-amino]-pyrrolidine-1-carbonyl}-piperazin-1-yl)-nicotinonitrile]: the Ki stood at 1.9 nM.

With `CN(C)CCCN1CCN(C(=O)N2C[C@H](c3ccc(Cl)c(Cl)c3)[C@@H](N(C)Cc3ccc(C(F)(F)F)c(F)c3)C2)CC1` (racemic) [Example 74, {(3SR,4RS)-3-(3,4-Dichloro-phenyl)-4-[(3-fluoro-4-trifluoromethyl-benzyl)-methyl-amino]-pyrrolidin-1-yl}-[4-(3-dimethylamino-propyl)-piperazin-1-yl]-methanone], the inhibition constant (Ki) is 5.4 nM.
